# Experimental data published in patent US7402587B2, “Crystalline forms of a pyridinyl-sulfonamide and their use as endothelin receptor antagonists” (Speedel Pharma AG, priority 2004, dated 2008).
# Legend:
# Type in all cases: physicochemical
# [1] = Hygroscopicity: water adsorption when stored under humid conditions; settings: hygroscopic, water released between 50° C. and 200° C. when heated at 10° C./minute
# Description: Polymorph form A is a solid powder with a particle size in the range from 1 to 500 μm, preferably 5 to 300 μm, and more preferably 5 to 200 μm. The polymorph A is hygroscopic and adsorbs water to a content of about 5 percent by weight (when stored under humid conditions), which is continuously released between 50° C. and 200° C., when heated at a rate of 10° C./minute. The polymorph A is especially suitable as an intermediate and starting material to produce stable polymorph forms.
# [2] = Light sensitivity of solutions and suspensions; settings: in particular above ambient temperature
# [3] = Thermodynamic stability of the crystalline forms (own investigations); settings: compared with the other crystalline forms
# Description: Own investigations have shown that there exist two distinct crystalline forms, hereinafter referred to as form A and form B, as well as a number of further solvates, in particular the methanol, ethanol, isopropanol, dichloromethane, acetone, methyl ethyl ketone and tetrahydrofuran solvates.
compound,measurement,setting,value
"COc1ccccc1Oc1c(NS(=O)(=O)c2ccc(C)cn2)nc(-c2ccncc2)nc1OC [form A, 5-methyl-pyridine-2-sulfonic acid [6-methoxy-5-(2-methoxy-phenoxy)-2-pyridin-4-yl-pyrimidin-4-yl]-amide]",adsorbs water to a content of,[1],about 5 percent by weight
"COc1ccccc1Oc1c(NS(=O)(=O)c2ccc(C)cn2)nc(-c2ccncc2)nc1OC [SPP301, 5-methyl-pyridine-2-sulfonic acid [6-methoxy-5-(2-methoxy-phenoxy)-2-pyridin-4-yl-pyrimidin-4-yl]-amide]",sensitivity to light,[2],sensitive to light
"COc1ccccc1Oc1c(NS(=O)(=O)c2ccc(C)cn2)nc(-c2ccncc2)nc1OC [form B, 5-methyl-pyridine-2-sulfonic acid [6-methoxy-5-(2-methoxy-phenoxy)-2-pyridin-4-yl-pyrimidin-4-yl]-amide]",thermodynamic stability of crystalline form,[3],thermodynamically stable
